For the assay, the system named is patients with atopic dermatitis. The assay is described as follows: Phase III open-label trial: vIGA-AD, maintenance (BIW) dosing and disease control. It counts as in vivo, human. As to the method:
The vIGA-AD is a static evaluation of qualitative overall AD severity. This global assessment scale is an ordinal scale with five severity grades (reported only in integers of 0 to 4). Each grade is defined by a distinct and clinically relevant morphologic description that minimizes inter-observer variability (see Table 1). vIGA-AD is evaluated for the entire body except the scalp, palms, and soles.
A Phase III, multicenter, open-label clinical trial was carried out to investigate the use of a topical roflumilast emollient cream to treat patients with atopic dermatitis. The primary objective of this study was to assess long-term safety in a multicenter, open-label, single-arm study in subjects with atopic dermatitis treated with either […] (for subjects ≥6 years of age) or 0.05% (for subjects between 2 to 5 years of age) topical roflumilast cream.
The primary endpoints of the study were adverse events or serious adverse events. The secondary endpoints of this study were validated investigator Global assessment-atopic dermatitis (“vIGA-AD”) value 0 or 1 at each assessment, vIGA-AD success (defined as vIGA-AD value of 0 or 1 plus a 2-grade improvement from baseline), Worst Itch-Numeric Rating Score (“WI-NRS”) score over time, and Eczema Area and Severity Index (“EASI”) score over time.
All patients enrolled in this phase III study applied either a 0.15% or 0.05% roflumilast topical cream once daily until Week 4 of the study. Patients between 2-5 years of age received 0.05% roflumilast topical cream and patients 6 years of age or older received 0.15% roflumilast. Subjects who reached 6 years of age during the study were switched from 0.05% to 0.15% roflumilast topical cream at the first scheduled clinical visit following their sixth birthday. Study medication was applied for up to 24 or 52 weeks to all affected areas, except on the scalp. Beginning at the Week 4 visit, any subject who achieved vIGA-AD of 0 as confirmed by the Investigator at a scheduled or unscheduled clinical visit, was switched from daily to twice weekly administration of roflumilast topical cream. Instructions for the twice weekly administration were to apply the roflumilast topical cream on two nonconsecutive days per week (e.g. Monday and Thursday) to areas commonly and/or most recently affected by atopic dermatitis and any areas where atopic dermatitis was developing.
Clinical visits and phone contact were scheduled at Weeks 4, 12, 18, 24, 30, 36, 44, and 52 of the study. At clinical visits, subjects receiving twice weekly treatment (“maintenance treatment”) were permitted to continue maintenance treatment if vIGA-AD was either 0 or 1. Subjects evaluated at clinical visits with vIGA-AD 2 or greater were instructed to resume daily administration of roflumilast topical cream. Patients were also permitted to resume daily dosing, despite a vIGA-AD of 1, if signs or symptoms of atopic dermatitis were not adequately controlled with maintenance therapy.
Median duration of the first maintenance dosing period was ≥124 days for the 24-week cohort and ≥270 days for the 52-week cohort. 65% percent of these patients were on a maintenance dosing regimen through the final visit. Disease control was defined as a vIGA-AD score of 0, a switch to a maintenance dosing regimen, and a maintenance of a vIGA-AD score of 0 or 1.

Where only a bound is given, the exact number is not on record here.

As for `O=C(Nc1c(Cl)cncc1Cl)c1ccc(OC(F)F)c(OCC2CC2)c1` [roflumilast, N-(3,5-dichloropyrid-4-yl)-3-cyclopropylmethoxy-4-difluoromethoxybenzamide], the “Median duration of the first maintenance (BIW) dosing period” value by setting is: (24-week cohort) no less than 124 days; (52-week cohort) no less than 270 days. Also, the “number of patients who achieved vIGA-AD=0 and switched to maintenance (BIW) dosing” value (by Week 24 and Week 52) turned out to be 132. In addition, the “patients who achieved vIGA-AD=0 and switched to maintenance (BIW) dosing” value (by Week 24 and Week 52, once daily, twice weekly after vIGA-AD 0) is on record as 20.1%. The “patients on maintenance (BIW) dosing regimen through the final visit” value (of the 132 patients who switched) is recorded as 65%.

(Values after patent US20250082618A1, “DOSING REGIMENS USING TOPICAL ROFLUMILAST COMPOSITIONS” (ARCUTIS BIOTHERAPEUTICS, INC., priority 2023, published 2025).)
